Experiment [1] addresses T1, Gamma-aminobutyric acid receptor subunit alpha-1 (Homo sapiens) (UniProt P14867).
T1 sequence (whole entry): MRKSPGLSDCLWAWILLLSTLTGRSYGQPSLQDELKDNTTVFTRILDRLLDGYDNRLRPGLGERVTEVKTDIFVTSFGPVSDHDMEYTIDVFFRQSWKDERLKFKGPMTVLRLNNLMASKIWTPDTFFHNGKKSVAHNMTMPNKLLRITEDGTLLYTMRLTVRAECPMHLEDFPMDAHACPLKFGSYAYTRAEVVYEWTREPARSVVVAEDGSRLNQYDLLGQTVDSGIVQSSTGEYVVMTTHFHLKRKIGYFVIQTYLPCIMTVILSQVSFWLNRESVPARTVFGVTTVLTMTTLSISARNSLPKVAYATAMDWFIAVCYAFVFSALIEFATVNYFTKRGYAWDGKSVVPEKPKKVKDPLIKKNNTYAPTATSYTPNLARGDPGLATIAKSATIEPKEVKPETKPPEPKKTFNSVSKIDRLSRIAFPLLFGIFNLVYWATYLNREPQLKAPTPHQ
The experiment is described as follows: Binding affinity to GABA-A alpha1 (unknown origin) assessed as increase in induced current relative to control.

The target of experiment [2] is T2, Gamma-aminobutyric acid receptor subunit alpha-2 (Homo sapiens) (UniProt P47869).
T2 sequence (whole entry): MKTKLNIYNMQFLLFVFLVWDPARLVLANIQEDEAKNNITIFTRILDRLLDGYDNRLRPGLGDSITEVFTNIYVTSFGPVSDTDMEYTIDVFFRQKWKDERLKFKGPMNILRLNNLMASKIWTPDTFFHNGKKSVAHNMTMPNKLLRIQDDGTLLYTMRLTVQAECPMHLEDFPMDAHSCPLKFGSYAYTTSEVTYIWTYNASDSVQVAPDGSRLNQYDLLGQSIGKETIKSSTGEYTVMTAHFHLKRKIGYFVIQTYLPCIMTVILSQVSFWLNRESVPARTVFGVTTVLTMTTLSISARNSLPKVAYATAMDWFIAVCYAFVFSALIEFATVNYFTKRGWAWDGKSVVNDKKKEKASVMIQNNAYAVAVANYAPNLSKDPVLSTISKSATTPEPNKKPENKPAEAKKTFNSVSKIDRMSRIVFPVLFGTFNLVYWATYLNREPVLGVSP
Briefly: Binding affinity to GABA-A alpha2 (unknown origin) assessed as increase in induced current relative to control.

Experiment [3] concerns the target T3, Gamma-aminobutyric acid receptor subunit alpha-3 (Homo sapiens) (UniProt P34903).
T3 sequence (whole entry): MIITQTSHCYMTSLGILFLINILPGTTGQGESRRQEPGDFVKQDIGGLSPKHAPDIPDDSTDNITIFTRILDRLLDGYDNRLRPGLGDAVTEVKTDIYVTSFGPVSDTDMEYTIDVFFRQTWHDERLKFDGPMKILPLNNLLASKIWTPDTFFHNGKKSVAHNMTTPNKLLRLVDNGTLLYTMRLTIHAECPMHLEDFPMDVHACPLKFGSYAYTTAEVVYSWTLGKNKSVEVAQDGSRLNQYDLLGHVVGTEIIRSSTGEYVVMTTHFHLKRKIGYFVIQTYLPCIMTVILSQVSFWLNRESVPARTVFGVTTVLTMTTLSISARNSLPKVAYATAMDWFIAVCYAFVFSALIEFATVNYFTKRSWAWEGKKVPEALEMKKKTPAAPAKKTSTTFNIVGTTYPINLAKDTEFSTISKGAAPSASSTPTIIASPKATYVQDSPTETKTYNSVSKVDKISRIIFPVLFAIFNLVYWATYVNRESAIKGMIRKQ
The experiment is described as follows: Binding affinity to GABA-A alpha3 (unknown origin) assessed as increase in induced current relative to control.

The target of experiment [4] is T4, Gamma-aminobutyric acid receptor subunit alpha-5 (Homo sapiens) (UniProt P31644).
T4 sequence (whole entry): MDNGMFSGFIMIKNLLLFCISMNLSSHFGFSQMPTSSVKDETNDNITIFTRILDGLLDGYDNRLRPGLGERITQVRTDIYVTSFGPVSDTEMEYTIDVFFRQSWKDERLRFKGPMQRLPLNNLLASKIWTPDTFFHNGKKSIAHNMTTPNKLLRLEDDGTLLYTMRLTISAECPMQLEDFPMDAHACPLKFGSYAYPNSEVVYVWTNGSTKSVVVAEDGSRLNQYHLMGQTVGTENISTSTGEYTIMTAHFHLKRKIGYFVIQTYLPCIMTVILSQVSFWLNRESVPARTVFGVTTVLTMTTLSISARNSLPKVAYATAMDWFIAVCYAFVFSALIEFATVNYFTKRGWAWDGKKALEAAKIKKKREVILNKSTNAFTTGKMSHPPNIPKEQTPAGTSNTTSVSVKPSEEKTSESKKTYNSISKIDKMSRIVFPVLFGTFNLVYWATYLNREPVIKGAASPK
Briefly: Binding affinity to GABA-A alpha5 (unknown origin) assessed as increase in induced current relative to control.

In experiment [5] the target is T5, GABA-A receptor; alpha-1/beta-3/gamma-2 (Homo sapiens, UniProt P14867+P18507+P28472).
T5 sequence (P14867 whole entry): T1 sequence (whole entry)
T5 sequence (P18507 whole entry): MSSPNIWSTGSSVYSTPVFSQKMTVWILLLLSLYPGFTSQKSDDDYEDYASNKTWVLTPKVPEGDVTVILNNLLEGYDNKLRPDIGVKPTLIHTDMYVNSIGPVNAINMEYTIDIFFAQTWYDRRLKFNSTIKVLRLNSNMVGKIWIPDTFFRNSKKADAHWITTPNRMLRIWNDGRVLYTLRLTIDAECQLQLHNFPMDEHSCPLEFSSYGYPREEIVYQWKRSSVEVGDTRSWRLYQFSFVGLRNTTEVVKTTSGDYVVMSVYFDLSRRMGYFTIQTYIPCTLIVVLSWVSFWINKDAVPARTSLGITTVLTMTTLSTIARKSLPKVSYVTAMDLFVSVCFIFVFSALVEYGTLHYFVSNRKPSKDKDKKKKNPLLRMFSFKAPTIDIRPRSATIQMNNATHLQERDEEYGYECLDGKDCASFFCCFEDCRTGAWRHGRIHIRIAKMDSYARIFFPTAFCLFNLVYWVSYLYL
T5 sequence (P28472 whole entry): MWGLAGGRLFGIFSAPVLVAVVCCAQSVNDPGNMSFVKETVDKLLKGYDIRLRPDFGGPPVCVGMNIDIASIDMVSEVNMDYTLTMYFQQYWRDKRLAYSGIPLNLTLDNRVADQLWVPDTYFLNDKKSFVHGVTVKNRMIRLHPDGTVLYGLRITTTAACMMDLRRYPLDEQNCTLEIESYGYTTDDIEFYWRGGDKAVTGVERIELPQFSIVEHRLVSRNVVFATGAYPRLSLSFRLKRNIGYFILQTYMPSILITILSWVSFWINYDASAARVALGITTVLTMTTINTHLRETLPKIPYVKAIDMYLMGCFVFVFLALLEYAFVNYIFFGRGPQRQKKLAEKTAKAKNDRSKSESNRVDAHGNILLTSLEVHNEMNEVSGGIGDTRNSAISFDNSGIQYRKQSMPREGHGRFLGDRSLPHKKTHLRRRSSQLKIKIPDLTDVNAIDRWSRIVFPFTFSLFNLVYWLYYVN
Briefly: Displacement of [3H]-Ro15-1788 from human GABAA alpha1beta3gamma2 expressed in HEK293 cell membranes incubated for 40 or 90 mins by liquid scintillation counting method. For orientation: Displacement assays read how much labelled ligand stays bound in the presence of the test substance.

Experiment [6] is described as follows: Displacement of [3H]-Ro15-1788 from human GABAA alpha2beta3gamma2 expressed in HEK293 cell membranes incubated for 40 or 90 mins by liquid scintillation counting method.
The target of experiment [7] is T6, GABA-A receptor; alpha-3/beta-3/gamma-2 (Homo sapiens, UniProt P18507+P28472+P34903).
T6 sequence (P18507 whole entry): T5 sequence (P18507 whole entry)
T6 sequence (P28472 whole entry): T5 sequence (P28472 whole entry)
T6 sequence (P34903 whole entry): T3 sequence (whole entry)
The experiment is described as follows: Displacement of [3H]-Ro15-1788 from human GABAA alpha3beta3gamma2 expressed in HEK293 cell membranes incubated for 40 or 90 mins by liquid scintillation counting method.

Experiment [8] deals with T7, GABA-A receptor; alpha-5/beta-3/gamma-2 (Homo sapiens, UniProt P18507+P28472+P31644).
T7 sequence (P18507 whole entry): T5 sequence (P18507 whole entry)
T7 sequence (P28472 whole entry): T5 sequence (P28472 whole entry)
T7 sequence (P31644 whole entry): T4 sequence (whole entry)
Briefly: Displacement of [3H]-Ro15-1788 from human GABAA alpha5beta3gamma2 expressed in HEK293 cell membranes incubated for 40 or 90 mins by liquid scintillation counting method.

Experiment [9] deals with Rattus norvegicus. The experiment is described as follows: In vivo receptor occupancy at GABAA receptor in po dosed Wistar rat brain assessed as brain concentration causing reduction in [3H]Flunitrazepam receptor labeling by scintillation counting method. It counts as functional.
For experiment [10], the target named is T8, Gamma-aminobutyric acid receptor subunit alpha-2 (Homo sapiens, UniProt P47869).
T8 sequence (P47869 whole entry): T2 sequence (whole entry)
Briefly: Binding affinity to GABA-A alpha2 (unknown origin).

Experiment [11] deals with T9, Gamma-aminobutyric acid receptor subunit alpha-1 (Homo sapiens, UniProt P14867).
T9 sequence (P14867 whole entry): T1 sequence (whole entry)
Briefly: Binding affinity to GABA-A alpha1 (unknown origin).

Experiment [12] addresses T10, Gamma-aminobutyric acid receptor subunit alpha-3 (Homo sapiens, UniProt P34903).
T10 sequence (P34903 whole entry): T3 sequence (whole entry)
The experiment is described as follows: Binding affinity to GABA-A alpha3 (unknown origin).

For experiment [13], the system named is Rattus norvegicus. Briefly: In vivo receptor occupancy at GABAA receptor in po dosed Sprague-Dawley rat assessed as brain concentration causing 50% reduction in [3H]-flumazenil receptor labeling after 0.5 hrs. It counts as functional.
In experiment [14] the test system is Rattus norvegicus. The experiment is described as follows: In vivo receptor occupancy at GABAA receptor in po dosed Sprague-Dawley rat assessed as plasma concentration causing 50% reduction in [3H]-flumazenil receptor labeling after 0.5 hrs. The format is functional.
In experiment [15] the test system is Rhesus monkey. Briefly: In vivo receptor occupancy at GABAA receptor in iv dosed rhesus monkey assessed as plasma concentration causing 50% reduction in [11C]-flumazenil receptor labeling by PET method. The format is functional, Macaca mulatta.
The subject of experiment [16] is Homo sapiens. The experiment is described as follows: In vivo receptor occupancy at GABAA receptor in human at 5 mg, po relative to control. The format is functional.
The target of experiment [17] is T11, Gamma-aminobutyric acid receptor subunit alpha-5 (Homo sapiens, UniProt P31644).
T11 sequence (P31644 whole entry): T4 sequence (whole entry)
The experiment is described as follows: Binding affinity to GABA-A alpha5 (unknown origin).

Experiment [18] has as its system Rattus norvegicus. The experiment is described as follows: In vivo receptor occupancy at GABAA receptor in po dosed Sprague-Dawley rat assessed as brain concentration causing 50% reduction in [3H]-flumazenil receptor labeling after 0.75 hrs by scintillation counting method. It counts as functional.
Experiment [19] deals with Rattus norvegicus. Briefly: In vivo receptor occupancy at GABAA receptor in po dosed Sprague-Dawley rat assessed as plasma concentration causing 50% reduction in [3H]-flumazenil receptor labeling by scintillation counting method. The format is functional.
Experiment [20] deals with Homo sapiens. Briefly: In vivo receptor occupancy GABAA receptor in human assessed as neocortical regions concentration causing reduction in [11C]flumazenil receptor labeling at 1.5 mg after 5 hrs by PET method relative to control. It counts as functional.
Experiment [21] deals with Homo sapiens. The experiment is described as follows: In vivo receptor occupancy GABAA receptor in human assessed as neocortical regions concentration causing reduction in [11C]flumazenil receptor labeling at 1.5 mg after 24 hrs by PET method relative to control. The format is functional.
Experiment [22] concerns Homo sapiens. The experiment is described as follows: In vivo receptor occupancy at GABAA receptor in po dosed human assessed as plasma concentration causing 50% reduction in [11C]-flumazenil receptor labeling. It counts as functional.

As to `CC(C)(O)c1ccc2c(c1)ncn2-c1cccc(-c2ccccc2C#N)c1`, the fold change (FC) in [1] is 0.08; in experiment [2] it was 0.26; in [3], 0.52; in [4] it was 0.78. For the same compound, the Ki – broadly, a dissociation constant, usually derived from enzyme kinetics or from competition with a known ligand – in [5] turned out to be 410 pM; in experiment [6] it was 840 pM; in [7] it was 500 pM; in [8], 120 pM. The Occ50 in experiment [9] came to 0.69 mg/kg.

Turning to `Cc1cc(-c2nncc3c(C(C)(C)C)c(OCc4ncnn4C)nn23)no1`, the figures for the Ki in [10], in [11] and in experiment [12] were 850 pM, 830 pM and 770 pM, respectively. Also, the Occ50 in experiment [13] came to 0.39 mg/kg; in [14] it was 15 ng/mL; in [15] it was 21 ng/mL. In experiment [16], this compound returned an Occ of 75%.

For `CC(C)(O)c1cnn2c(-c3ccc(F)c(-c4c(F)cccc4C#N)c3)cnc2n1`, the inhibitory constant (Ki) stood at 2000 pM in [10], 730 pM in experiment [11], 1800 pM in [12] and 1100 pM in [17]. Besides, the fold change (FC) in [1] was 0.03; in experiment [2], 0.38; in experiment [3], 0.5; in experiment [4], 0.37. The Occ50 came out at 0.09 mg/kg in experiment [18], 19 ng/mL in [19] and 5.8 ng/mL in experiment [22]. In addition, the Occ in [20] came out at 52%; in experiment [21], 46%.
